Some test systems named below: NCI-H460 lung; UACC-62 melanoma; MALME-3M melanoma; SF-268 CNS; SK-OV-3 ovarian; NCI-H23 lung; OVCAR-5 ovarian; TK-10 renal; SK-MEL-2 melanoma; MDA-MB-231 breast.
Common to all, as to assay: NCI anticancer screen, dose series, 48 h

Structures are written as SMILES.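 48-hour exposure; five concentrations; linearly interpolated endpoints. The concentration for 50% growth inhibition is given as GI50. At the TGI there is no net growth.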 Some results are limits rather than exact numbers.

Take `Cc1c(C(=O)CC(=O)C(=O)Nc2cc(Cl)ccc2Cl)[n+](=O)c2ccccc2n1[O-]`: the TGI with NCI-H460 lung is 99.5 µM; with UACC-62 melanoma, 40.2 µM; with MALME-3M melanoma, > 100 µM; in the experiment on SF-268 CNS, > 100 µM; in the experiment with SK-OV-3 ovarian, > 100 µM; with NCI-H23 lung, > 100 µM. Moreover, the TGI in the experiment with OVCAR-5 ovarian, in the experiment with TK-10 renal and in the experiment with SK-MEL-2 melanoma was > 100 µM each time.
Consider `CC1=NOC(=O)C1N=Nc1ccc(Br)c(C)c1` (stereo unspecified), for which the TGI in the experiment with NCI-H460 lung is 58.6 µM; with UACC-62 melanoma, 37.7 µM; with MALME-3M melanoma, 33.3 µM; with SF-268 CNS, 47.6 µM; with SK-OV-3 ovarian it was 97.8 µM; in the experiment on NCI-H23 lung, 44.2 µM. Also, the TGI in the experiment on OVCAR-5 ovarian was 72 µM; in the experiment on TK-10 renal it was 33.2 µM; in the experiment on SK-MEL-2 melanoma it was 30.7 µM.
On to `O=c1cc(-c2ccccn2)[nH]c2cc(F)ccc12`, for which the TGI in the experiment on NCI-H460 lung, in the experiment with UACC-62 melanoma, with MALME-3M melanoma, with SF-268 CNS, in the experiment on SK-OV-3 ovarian and with NCI-H23 lung was > 100 µM each time. Besides, the TGI with OVCAR-5 ovarian and in the experiment with TK-10 renal was > 100 µM in each case. Moreover, the GI50 in the experiment with SF-268 CNS is 29.5 µM.
As to `O=C(CSc1nc(-c2ccccc2)c(-c2ccccc2)[nH]1)NNC(=S)Nc1ccccc1`, the TGI in the experiment with NCI-H460 lung, in the experiment on UACC-62 melanoma, in the experiment on MALME-3M melanoma, with SF-268 CNS, in the experiment on SK-OV-3 ovarian and in the experiment on NCI-H23 lung was > 100 µM throughout. Moreover, the TGI in the experiment with OVCAR-5 ovarian, in the experiment on TK-10 renal and with SK-MEL-2 melanoma was > 100 µM each time.
As for `Cc1ccc(/C=C2/NC(=S)SC2=O)cc1`, the TGI was 50.4 µM in the experiment with NCI-H460 lung; 83.4 µM with MDA-MB-231 breast; > 100 µM with SK-OV-3 ovarian; 64.8 µM in the experiment with NCI-H23 lung; > 100 µM with OVCAR-5 ovarian; 53.9 µM with TK-10 renal. In addition, the TGI in the experiment with SK-MEL-2 melanoma was > 100 µM.
Consider `Clc1ccc(-c2c(C3=NCCN3)nnn2-c2ccccc2)cc1`, for which the TGI in the experiment with NCI-H460 lung, in the experiment on UACC-62 melanoma, in the experiment on MALME-3M melanoma, with SF-268 CNS, with SK-OV-3 ovarian and in the experiment with NCI-H23 lung was > 100 µM in each case. Besides, the TGI in the experiment with OVCAR-5 ovarian, in the experiment with TK-10 renal and in the experiment with SK-MEL-2 melanoma was > 100 µM in each case.
With `CCCCCCCCCCCCCC(=O)NCC(OCC)OCC`, the TGI in the experiment with NCI-H460 lung, in the experiment on UACC-62 melanoma, in the experiment with MALME-3M melanoma, with SF-268 CNS, in the experiment on SK-OV-3 ovarian and with NCI-H23 lung was > 100 µM each time. Besides, the TGI in the experiment on OVCAR-5 ovarian, in the experiment on TK-10 renal and with SK-MEL-2 melanoma was > 100 µM throughout.
As to `COC(=O)[C@H]1N[C@@H](C(=O)OC)C23CCC[C@H]2CC[C@]1(C(OC)OC)C3`, the TGI in the experiment with NCI-H460 lung, in the experiment with UACC-62 melanoma, with MALME-3M melanoma, with SF-268 CNS, in the experiment with SK-OV-3 ovarian and in the experiment on NCI-H23 lung was > 100 µM throughout. In addition, the TGI in the experiment on OVCAR-5 ovarian, in the experiment on TK-10 renal and in the experiment on SK-MEL-2 melanoma was > 100 µM each time.
As for `COc1cc(C2c3cc4c(cc3[C@@H](OCCN(C)C)C3COC(=O)[C@H]23)OCO4)cc(OC)c1O` (stereo partly specified), the TGI in the experiment with NCI-H460 lung is 0.441 µM; in the experiment on UACC-62 melanoma, 1.38 µM; in the experiment with MALME-3M melanoma it was 1.87 µM; in the experiment on SF-268 CNS it was 3.83 µM; in the experiment on SK-OV-3 ovarian, 1.6 µM; in the experiment with NCI-H23 lung it was 1.18 µM. In addition, the TGI in the experiment on OVCAR-5 ovarian stood at 4.26 µM; in the experiment on TK-10 renal it was 5.49 µM; in the experiment on SK-MEL-2 melanoma, 4.03 µM.
Take `O=C(O)Cc1ccccc1CCc1ccccc1Cl`: the TGI with NCI-H460 lung, with MALME-3M melanoma, in the experiment on SF-268 CNS, in the experiment with SK-OV-3 ovarian, in the experiment on NCI-H23 lung and in the experiment with OVCAR-5 ovarian was > 100 µM throughout. The results for the TGI in the experiment with TK-10 renal and with SK-MEL-2 melanoma were > 100 µM and 91.7 µM, respectively.
Turning to `Cc1c(Cl)cccc1NC(=O)/C(Cl)=C(\Cl)C(=O)O`, the TGI with NCI-H460 lung is > 100 µM; in the experiment on UACC-62 melanoma it was 26.6 µM; in the experiment with MALME-3M melanoma it was 32.2 µM; in the experiment with SF-268 CNS it was 40.9 µM; in the experiment with SK-OV-3 ovarian, 33.3 µM; in the experiment with NCI-H23 lung, 33.8 µM. The TGI in the experiment on OVCAR-5 ovarian stood at 30.6 µM; with TK-10 renal, 35.2 µM; in the experiment on SK-MEL-2 melanoma it was 49.2 µM.
On to `COc1ccc(N2C(=O)C3c4[nH]c5ccccc5c4C4CCCCCCC4C3C2=O)cc1` (stereo unspecified), for which the TGI was 27.5 µM in the experiment on NCI-H460 lung; 39.2 µM in the experiment with UACC-62 melanoma; 41.4 µM in the experiment with MALME-3M melanoma; 31.3 µM in the experiment on SF-268 CNS; 33.2 µM in the experiment on SK-OV-3 ovarian; 31.2 µM in the experiment on NCI-H23 lung. Further, the TGI with OVCAR-5 ovarian is > 100 µM; in the experiment with TK-10 renal, 40.4 µM; in the experiment with SK-MEL-2 melanoma it was > 69.8 µM.
Regarding `CN1C(=O)C2C=CC1C1CCC2N(C)C1=O` (stereo unspecified), the TGI in the experiment with UACC-62 melanoma, with MALME-3M melanoma, in the experiment on SF-268 CNS, in the experiment with SK-OV-3 ovarian, in the experiment on NCI-H23 lung and in the experiment on OVCAR-5 ovarian was > 100 µM each time. The TGI with TK-10 renal and in the experiment on SK-MEL-2 melanoma was > 100 µM in each case.
Regarding `CCOC(=O)C1=C(Nc2ccc(Cl)c(Cl)c2)OC/C1=N\NC(=O)Cc1ccccc1`, the TGI in the experiment with NCI-H460 lung, in the experiment on UACC-62 melanoma, in the experiment on MALME-3M melanoma, in the experiment with SF-268 CNS, in the experiment with SK-OV-3 ovarian and with NCI-H23 lung was > 100 µM throughout. Also, the TGI in the experiment on OVCAR-5 ovarian, in the experiment with TK-10 renal and in the experiment on SK-MEL-2 melanoma was > 100 µM each time.
For the compound `COc1cc(C2c3cc4c(cc3[C@@H](N(C)C)[C@H]3COC(=O)C23)OCO4)cc(OC)c1O` (stereo partly specified), the TGI in the experiment on NCI-H460 lung, with UACC-62 melanoma, with MALME-3M melanoma, in the experiment with SF-268 CNS, in the experiment on SK-OV-3 ovarian and with NCI-H23 lung was > 100 µM in each case. Moreover, the TGI in the experiment on OVCAR-5 ovarian, in the experiment on TK-10 renal and with SK-MEL-2 melanoma was > 100 µM in each case.

Values taken from PubChem BioAssay (NCI).
